Target: T1, human GPR120 (Homo sapiens, UniProt Q5NUL3)
T1 construct: Flag (DYKDDDDK) (N); host or cells: HEK293 cells co-expressing Gqi5
T1 sequence (Q5NUL3 1-361): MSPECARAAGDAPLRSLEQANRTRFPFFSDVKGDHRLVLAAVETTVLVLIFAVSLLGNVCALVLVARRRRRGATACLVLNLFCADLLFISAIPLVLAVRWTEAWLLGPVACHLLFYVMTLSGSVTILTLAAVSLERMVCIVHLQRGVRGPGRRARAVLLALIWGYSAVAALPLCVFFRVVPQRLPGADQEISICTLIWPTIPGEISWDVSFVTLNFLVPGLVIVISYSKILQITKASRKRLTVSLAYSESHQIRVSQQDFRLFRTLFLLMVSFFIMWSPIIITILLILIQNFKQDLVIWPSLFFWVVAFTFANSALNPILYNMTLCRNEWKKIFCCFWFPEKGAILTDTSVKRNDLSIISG
Assay: Intracellular Ca2+ assay (FLIPR Calcium 4, Flexstation) in human GPR120 stable cell line
Assay type: cell-based
Conditions: % activity at 2.5 μM compared to the maximal activity of the compound of Example 25 at 2.5 μM; HEK293 cells co-expressing Gqi5
How it was run: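 HEK293 cells co-expressing Gqi5 and stably expressing Flag-tagged human GPR120 were seeded at 70,000 cells per well in poly-D-lysine coated 96 well plates and loaded with FLIPR Calcium 4 dye for 50 minutes at 37° C. On a Flexstation, compound-induced fluorescence (excitation 485 nm, emission 525) was recorded for 90 seconds. Percent activity was expressed against a reference agonist's maximal activity at 2.5 μM, set as 100%.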

Row | SMILES | % Activity (Ex. 25 Reference Compound)
1 | CC(CCc1ccc(OCc2cc(F)cc3c2OC(C)(C)C3)cc1)C(=O)O (stereo not shown) [Example 171, 4-(4-((5-fluoro-2,2-dimethyl-2,3-dihydrobenzofuran-7-yl)methoxy)phenyl)-2-methylbutanoic acid] | 98.97%
2 | COc1cc(CCC(=O)O)ccc1OCc1cc(F)cc2c1OC(C)(C)C2 [Example 173, 3-(4-((5-fluoro-2,2-dimethyl-2,3-dihydrobenzofuran-7-yl)methoxy)-3-methoxyphenyl)propanoic acid] | 159.06%
3 | CC1(C)Cc2cc(F)cc(COc3ccc4c(c3)CC[C@H]4CC(=O)O)c2O1 [Example 175, (S)-2-(5-((5-fluoro-2,2-dimethyl-2,3-dihydrobenzofuran-7-yl)methoxy)-2,3-dihydro-1H-inden-1-yl)acetic acid] | 152.44%
4 | CC1(C)Cc2cc(Cl)cc(COc3ccc4c(c3)CC[C@H]4CC(=O)O)c2O1 [Example 176, (S)-2-(5-((5-chloro-2,2-dimethyl-2,3-dihydrobenzofuran-7-yl)methoxy)-2,3-dihydro-1H-inden-1-yl)acetic acid] | 138.42%
5 | CC1(C)Cc2cc(F)cc(COc3ccc4c(c3)CC[C@@H]4CC(=O)O)c2O1 [Example 178, (R)-2-(5-((5-fluoro-2,2-dimethyl-2,3-dihydrobenzofuran-7-yl)methoxy)-2,3-dihydro-1H-inden-1-yl)acetic acid] | 106%
6 | CC1(C)Cc2cc(Cl)cc(COc3ccc4c(c3)CC[C@@H]4CC(=O)O)c2O1 [Example 179, (R)-2-(5-((5-chloro-2,2-dimethyl-2,3-dihydrobenzofuran-7-yl)methoxy)-2,3-dihydro-1H-inden-1-yl)acetic acid] | 105.44%
7 | CC(CC(=O)O)Cc1ccc(OCc2cc(F)cc3c2OC(C)(C)C3)cc1 (stereo not shown) [Example 182, 4-(4-((5-fluoro-2,2-dimethyl-2,3-dihydrobenzofuran-7-yl)methoxy)phenyl)-3-methylbutanoic acid] | 98.43%
8 | CC1(C)Cc2cc(F)cc(COc3c(F)cc(CC4CC4C(=O)O)cc3F)c2O1 (stereo not shown) [Example 184, 2-(3,5-difluoro-4-((5-fluoro-2,2-dimethyl-2,3-dihydrobenzofuran-7-yl)methoxy)benzyl)cyclopropanecarboxylic acid] | 97.04%
9 | CC1(C)Cc2c(COc3ccc4c(c3)CC[C@@H]4CC(=O)O)cc(F)cc2O1 [Example 188, (R)-2-(5-((6-fluoro-2,2-dimethyl-2,3-dihydrobenzofuran-4-yl)methoxy)-2,3-dihydro-1H-inden-1-yl)acetic acid] | 104.04%
10 | COc1cc(OCc2cc(Cl)cc3c2OC2(CCCC2)C3)ccc1CCC(=O)O [Example 194, 3-(4-((5-chloro-3H-spiro[benzofuran-2,1′-cyclopentane]-7-yl)methoxy)-2-methoxyphenyl)propanoic acid] | 148.21%
11 | CC1(C)Cc2cc(F)cc(COc3cc(Cl)c(CCC(=O)O)c(Cl)c3)c2O1 [Example 197, 3-(2,6-dichloro-4-((5-fluoro-2,2-dimethyl-2,3-dihydrobenzofuran-7-yl)methoxy)phenyl)propanoic acid] | 151.44%
12 | Cc1cc(OCc2cc(F)cc3c2OC(C)(C)C3)c(C)cc1CCC(=O)O [Example 206, 3-(4-((5-fluoro-2,2-dimethyl-2,3-dihydrobenzofuran-7-yl)methoxy)-2,5-dimethylphenyl)propanoic acid] | 111.45%
13 | Cc1c(CCC(=O)O)ccc(OCc2cc(F)cc3c2OC(C)(C)C3)c1C [Example 208, 3-(4-((5-fluoro-2,2-dimethyl-2,3-dihydrobenzofuran-7-yl)methoxy)-2,3-dimethylphenyl)propanoic acid] | 147.47%
14 | Cc1c(CCC(=O)O)ccc(OCc2cc(Cl)cc3c2OC(C)(C)C3)c1C [Example 209, 3-(4-((5-chloro-2,2-dimethyl-2,3-dihydrobenzofuran-7-yl)methoxy)-2,3-dimethylphenyl)propanoic acid] | 142.22%
15 | Cc1cc(OCc2cc(F)cc3c2OC(C)(C)C3)c(F)cc1CCC(=O)O [Example 214, 3-(5-fluoro-4-((5-fluoro-2,2-dimethyl-2,3-dihydrobenzofuran-7-yl)methoxy)-2-methylphenyl)propanoic acid] | 143.21%
16 | CCc1c(CCC(=O)O)ccc(OCc2cc(F)cc3c2OC(C)(C)C3)c1F [Example 216, 3-(2-ethyl-3-fluoro-4-((5-fluoro-2,2-dimethyl-2,3-dihydrobenzofuran-7-yl)methoxy)phenyl)propanoic acid] | 144.23%

Row | SMILES | % Activity (Ex. 25 Reference Compound)
17 | CC1(C)Cc2cc(F)cc(COc3ccc(CCC(=O)O)c4c3CCCC4)c2O1 [Example 218, 3-(4-((5-fluoro-2,2-dimethyl-2,3-dihydrobenzofuran-7-yl)methoxy)-5,6,7,8-tetrahydronaphthalen-1-yl)propanoic acid] | 114.48%
18 | CCc1cc(OCc2cc(F)cc3c2OC(C)(C)C3)c(F)cc1CCC(=O)O [Example 220, 3-(2-ethyl-5-fluoro-4-((5-fluoro-2,2-dimethyl-2,3-dihydrobenzofuran-7-yl)methoxy)phenyl)propanoic acid] | 115.86%
19 | [2H]C([2H])(Oc1ccc(CCC(=O)O)c(CC)c1F)c1cc(F)cc2c1OC(C)(C)C2 [Example 228, 3-(4-(dideuterio(5-fluoro-2,2-dimethyl-2,3-dihydrobenzofuran-7-yl)methoxy)-3-fluoro-2-ethylphenyl)propanoic acid] | 119.11%
20 | [2H]C([2H])(Oc1ccc(CC(C)C(=O)O)cc1F)c1cc(F)cc2c1OC(C)(C)C2 (stereo not shown) [Example 230, 3-(4-(dideuterio(5-fluoro-2,2-dimethyl-2,3-dihydrobenzofuran-7-yl)methoxy)-3-fluorophenyl)-2-methylpropanoic acid] | 86.25%
21 | [2H]C([2H])(Oc1ccc(CC(C)C(=O)O)cc1C(F)(F)F)c1cc(F)cc2c1OC(C)(C)C2 (stereo not shown) [Example 231, 3-(4-(dideuterio(5-fluoro-2,2-dimethyl-2,3-dihydrobenzofuran-7-yl)methoxy)-3-(trifluoromethyl)phenyl)-2-methylpropanoic acid] | 101.01%
22 | [2H]C([2H])(C(=O)O)C([2H])([2H])c1ccc(OCc2cc(Cl)cc3c2OC(C)(C)C3)c(F)c1 [Example 241, 3-(4-((5-chloro-2,2-dimethyl-2,3-dihydrobenzofuran-7-yl)methoxy)-3-fluorophenyl)-2,2,3,3-tetradeuteriopropanoic acid] | 159.62%
23 | [2H]C([2H])(C(=O)O)C([2H])([2H])c1ccc(OCc2cc(F)cc3c2OC(C)(C)C3)c(F)c1CC [Example 243, 3-(2-ethyl-3-fluoro-4-((5-fluoro-2,2-dimethyl-2,3-dihydrobenzofuran-7-yl)methoxy)phenyl)-2,2,3,3-tetradeuteriopropanoic acid] | 155.23%
24 | CC1(C)Cc2cc(Cl)cc(COc3ccccc3CCC(=O)O)c2O1 [Example 250, 3-(2-((5-chloro-2,2-dimethyl-2,3-dihydrobenzofuran-7-yl)methoxy)phenyl)propanoic acid] | 10.23%
25 | CC(Cc1cccc(OCc2cc(Cl)cc3c2OC(C)(C)C3)c1)C(=O)O (stereo not shown) [Example 251, 3-(3-((5-chloro-2,2-dimethyl-2,3-dihydrobenzofuran-7-yl)methoxy)phenyl)-2-methylpropanoic acid] | 61.14%
26 | Cc1cc(CCC(=O)O)c(C)c(C)c1OCc1cc(F)cc2c1OC(C)(C)C2 [Example 254, 3-(4-((5-fluoro-2,2-dimethyl-2,3-dihydrobenzofuran-7-yl)methoxy)-2,3,5-trimethylphenyl) propanoic acid] | 146.14%
27 | CC(C)Oc1ccc(Cl)cc1COc1cc2c(cc1F)C(CC(=O)O)CC2 (stereo not shown) [Example 257, 2-(5-((5-chloro-2-isopropoxybenzyl)oxy)-6-fluoro-2,3-dihydro-1H-inden-1-yl)acetic acid] | 124.62%
28 | CC(C)Oc1ccc(Cl)cc1COc1ccc2c(c1)CCC2CC(=O)O (stereo not shown) [Example 258, 2-(5-((5-chloro-2-isopropoxybenzyl)oxy)-2,3-dihydro-1H-inden-1-yl)acetic acid] | 139.95%
29 | CC(C)Oc1ncccc1COc1ccc2c(c1)CCC2CC(=O)O (stereo not shown) [Example 259, 2-(5-((2-isopropoxypyridin-3-yl)methoxy)-2,3-dihydro-1H-inden-1-yl)acetic acid] | 118.5%
30 | CC(Cc1cc(F)c(OCc2cccc3cn[nH]c23)c(F)c1)C(=O)O (stereo not shown) [Example 260, 3-(4-((1H-indazol-7-yl)methoxy)-3,5-difluorophenyl)-2-methylpropanoic acid] | 16.67%
31 | Cc1nc2cccc(COc3c(F)cc(CC(C)C(=O)O)cc3F)c2o1 (stereo not shown) [Example 261, 3-(3,5-difluoro-4-((2-methylbenzo[d]oxazol-7-yl)methoxy)phenyl)-2-methylpropanoic acid] | 108.78%

From patent US8598374B2, “GPR120 receptor agonists and uses thereof” (Metabolex, Inc, priority 2008, dated 2013)
